Test results: paper PMC10823471, “Ligand-Based Competition Binding by Real-Time ^19F NMR in Human Cells” (Journal of Medicinal Chemistry, 2024)

Molecular target: T1, Hsp90α N-terminal domain (Hsp90N) (Homo sapiens, UniProt P07900)
T1 construct: gene HSP90AA1
Assay: competition binding by real-time in-cell […] NMR against spy ligand […] (Kd back-calculated)
Assay type: cell-based

## CCNC(=O)c1cc2c(-c3cc(OCCN(CC)CC)c(Cl)cc3Cl)nc(N)nc2s1 [compound 5]
  Kd: 0.6 ± 0.1 nM
